According to patent publication US4598075A, “Cephalosporin compounds” (Tanabe Seiyaku Co., Ltd., priority 1982, dated 1986):
≈ marks a conversion by molar mass, not a printed value. Where two headings read alike, the source gives them in different places.

Experiments:
[1] = system: Streptococcus faecalis CN-478; test: MIC by standard agar plate dilution method; format: cell-based; settings: Enterococcus faecalis
From the text: The cephalosporin compound (I) of the present invention and pharmaceutically acceptable salts thereof show potent antimicrobial activity against a wide variety of microorganisms including those belonging to the genera Streptococcus (e.g., St. faecalis, St. pneumoniae), Staphylococcus (e.g., S. aureus, S. epidermidis) and Pseudomonas (e.g., Ps. aeruginosa, Ps. putida, Ps. stutzeri), and are particularly characterized by their potent antimicrobial activity against both gram-positive and gram-negative bacteria. […] The antimicrobial activity of 7β{(Z)-2-(2-aminothiazol-4-yl)-2-[(2-pyrrolidon-3-yl)oxyimino]-acetamido}-3-[(1-methyl-1H-tetrazol-5-yl)thio-methyl]-3-cephem-4-carboxylic acid against Staphylococcus aureus 252R is also more than 16 times stronger than those of Cefmenoxime and Ceftazidime. Moreover, the compound (I) and a salt thereof show potent antimicrobial activity against bacteria belonging to the genera Bacillus (e.g., B. subtilis), Escherichia (e.g., E. coli), Klebsiella (e.g., K. pneumoniae), Enterobacter (e.g., E. aerogenes, E. cloacae) and Serratia (e.g., S. marcescens).
(§1) The minimum inhibitory concentration (MIC, μg/ml) of a test compound was determined by means of a standard agar plate dilution method (based on the standard method of Japan Society of Chemotherapy). Media used in these experiments were Mueller-Hinton agar (MHA; Nissui).

[2] = system: Staphylococcus aureus 252R; test: MIC by standard agar plate dilution method; format: cell-based
Description: as §1

Serratia marcescens 7006 [3] = test: Protective effects on bacterial infections in mice; format: in vivo; settings: 168 h
Description: (§2) Ten male mice weighing 20±1 g were used for each dose level. Mice were challenged via the intraperitoneal route with sufficient bacteria to kill all non-treated mice within 24 hours. All bacteria were suspended in 6 % mucin. A test compound were administered intramuscularly one hour after the infection. Survival ratios were determined 7 days after the infection. The median effective doses (ED50, mg/kg) of the test compound were estimated by the probito analysis.

Citrobacter freundii 916 [4] = test: Protective effects on bacterial infections in mice; format: in vivo; settings: 168 h
Description: as §2

[5] = system: Staphylococcus aureus Smith; test: Protective effects on bacterial infections in mice; format: in vivo; settings: im, 168 h
Description: as §2

Escherichia coli KC-14 [6] = test: Protective effects on bacterial infections in mice; format: in vivo; settings: KC14, im, 168 h, intramuscular one hour after intraperitoneal infection, survival at 7 days
Description: as §2

[7] = system: Enterobacter aerogenes 816; test: Protective effects on bacterial infections in mice; format: in vivo; settings: 168 h
Description: as §2

[8] = system: Klebsiella pneumoniae 5038; test: MIC by standard agar plate dilution method; format: cell-based; settings: Table 1, Mueller-Hinton agar
Description: as §1

[9] = system: Bacillus subtilis ATCC 6633; test: MIC by standard agar plate dilution method; format: cell-based; settings: ATCC6633, Table 1, Mueller-Hinton agar
Description: as §1

[10] = system: Enterobacter cloacae TU-680; test: MIC by standard agar plate dilution method; format: cell-based; settings: TU680, Table 1, Mueller-Hinton agar
Description: as §1

[11] = system: Staphylococcus aureus Terajima; test: MIC by standard agar plate dilution method; format: cell-based; settings: Table 1, Mueller-Hinton agar
Description: as §1

[12] = system: Pseudomonas aeruginosa 4096; test: MIC by standard agar plate dilution method; format: cell-based; settings: Table 1, Mueller-Hinton agar
Description: as §1

[13] = system: Pseudomonas putida ATCC 12633; test: MIC by standard agar plate dilution method; format: cell-based; settings: ATCC12633, Table 1, Mueller-Hinton agar
Description: as §1

Serratia marcescens 7006 [14] = test: MIC by standard agar plate dilution method; format: cell-based
Description: as §1
(§3) The results are shown in the following Table 2 together with the M. I. C. (μg/ml) of the test compound which was estimated in the same manner as described in Experiment I.

Citrobacter freundii 916 [15] = test: MIC by standard agar plate dilution method; format: cell-based
Description: as §1, §3

[16] = system: Staphylococcus aureus Smith; test: MIC by standard agar plate dilution method; format: cell-based; settings: read-out: M.I.C. (in parentheses)
Description: as §1, §3

Escherichia coli KC-14 [17] = test: MIC by standard agar plate dilution method; format: cell-based; settings: KC14, Table 2, read-out: M.I.C. (in parentheses)
Description: as §1, §3

[18] = system: Enterobacter aerogenes 816; test: MIC by standard agar plate dilution method; format: cell-based
Description: as §1, §3

[19] = Subcutaneous administration to SD-male rats for 14 consecutive days; format: in vivo; settings: dose of 1000 mg for 14 consecutive days
Description: For example, no rats die even after 7β-{(Z)-2-(2-aminothiazol-4-yl)-2-[(2-pyrrolidon-3-yl)oxyimino]acetamido}-3-(1-pyridiniomethyl)-3-cephem-4-carboxylate (l-isomer) is administered subcutaneously to SD-male rats at a dose of 1000 mg for 14 consecutive days.

[20] = CN478, agar dilution method, cultured for 20 hours at 37° C., Streptococcus faecalis CN 478, read-out: minimum inhibitory concentration (M.I.C.)
[21] = im, Serratia marcescens 7006, intramuscular one hour after intraperitoneal infection, survival at 7 days, read-out: ED50
[22] = im, Citrobacter freundii 916, intramuscular one hour after intraperitoneal infection, survival at 7 days, read-out: ED50
[23] = Staphylococcus aureus Smith, intramuscular one hour after intraperitoneal infection, survival at 7 days, read-out: ED50
[24] = Klebsiella aerogenes, im, Enterobacter aerogenes 816, intramuscular one hour after intraperitoneal infection, survival at 7 days, read-out: ED50
[25] = Table 1, Mueller-Hinton agar, Staphylococcus aureus 252R, read-out: M.I.C.
[26] = CN478, Table 1, Mueller-Hinton agar, Streptococcus faecalis CN-478, read-out: M.I.C.
[27] = Table 1, Mueller-Hinton agar, Serratia marcescens 7006, read-out: M.I.C.
[28] = Table 2, Serratia marcescens 7006, read-out: M.I.C. (in parentheses)
[29] = Table 2, Citrobacter freundii 916, read-out: M.I.C. (in parentheses)
[30] = Table 2, Staphylococcus aureus Smith
[31] = Klebsiella aerogenes, Table 2, Enterobacter aerogenes 816, read-out: M.I.C. (in parentheses)

MIC [1, 20]	SMILES	ED50 (Serratia marcescens 7006 [3]; [21])	ED50 (Citrobacter freundii 916 [4]; [22])	ED50 [5, 23]	ED50 (Escherichia coli KC-14 [6])	ED50 [7, 24]	MIC [8]	MIC [2, 25]	MIC [9]	MIC [10]	MIC [11]	MIC [12]	MIC [13]	MIC [1, 26]	MIC (Serratia marcescens 7006 [14]; [27])	MIC (Serratia marcescens 7006 [14]; [28])	MIC (Citrobacter freundii 916 [15]; [29])	MIC [16, 30]	MIC (Escherichia coli KC-14 [17])	MIC [18, 31]	other results
25 µg/mL (≈ 42 µM)	CN1CCC(O/N=C(\C(=O)N[C@@H]2C(=O)N3C(C(=O)O)=C(CSc4nnnn4C)CS[C@H]23)c2csc(N)n2)C1=O (stereo partly drawn) [7β-{(Z)-2-(2-aminothiazol-4-yl)-2-[(1-methyl-2-pyrrolidon-3-yl)oxyiminoacetamido}-3-[(1-methyl-1H-tetrazol-5-yl)thiomethyl]-3-cephem-4-carboxylic acid]	–	–	–	–	–	–	–	–	–	–	–	–	–	–	–	–	–	–	–	–
–	Cn1nnnc1SCC1=C(C(=O)O)N2C(=O)[C@@H](NC(=O)/C(=N\OC3CCNC3=O)c3csc(N)n3)[C@H]2SC1 (stereo partly drawn) [7β{(Z)-2-(2-aminothiazol-4-yl)-2-[(2-pyrrolidon-3-yl)oxyimino]-acetamido}-3-[(1-methyl-1H-tetrazol-5-yl)thio-methyl]-3-cephem-4-carboxylic acid]	–	–	–	–	–	–	–	–	–	–	–	–	–	–	–	–	–	–	–	antimicrobial activity stronger than those of Cefmenoxime and Ceftazidime ([2]; Staphylococcus aureus 252R, relative to Cefmenoxime and Ceftazidime): more than 16 times
> 100 µg/mL	CO/N=C(\C(=O)N[C@@H]1C(=O)N2C(C(=O)O)=C(CSc3nnnn3C)CS[C@H]12)c1csc(N)n1 [Cefmenoxime, 7β-[(Z)-2-(2-aminothiazol-4-yl)-2-(methoxyimino)acetamido]-3-[(1-methyl-1H-tetrazol-5-yl)thiomethyl]-3-cephem-4-carboxylic acid]	0.88 mg/kg	0.19 mg/kg	5.32 mg/kg	0.16 mg/kg	23.9 mg/kg	0.1 µg/mL (≈ 0.195 µM)	> 100 µg/mL	1.56 µg/mL (≈ 3.05 µM)	0.1 µg/mL (≈ 0.195 µM)	1.56 µg/mL (≈ 3.05 µM)	6.25 µg/mL (≈ 12.2 µM)	100 µg/mL (≈ 195 µM)	> 100 µg/mL	0.2 µg/mL (≈ 0.391 µM)	0.2 µg/mL (≈ 0.391 µM)	0.05 µg/mL (≈ 0.0977 µM)	1.56 µg/mL (≈ 3.05 µM)	0.025 µg/mL (≈ 0.0489 µM)	1.56 µg/mL (≈ 3.05 µM)	–
–	CC(C)(O/N=C(\C(=O)N[C@@H]1C(=O)N2C(C(=O)[O-])=C(C[n+]3ccccc3)CS[C@H]12)c1csc(N)n1)C(=O)O [Ceftazidime, 7β-[(Z)-2-(2-aminothiazol-4-yl)-2-(2-carboxyprop-2-yloxyimino)acetamido]-3-(1-pyridiniomethyl)-3-cephem-4-carboxylate]	–	–	–	0.08 mg/kg	–	0.1 µg/mL (≈ 0.183 µM)	–	3.13 µg/mL (≈ 5.73 µM)	0.2 µg/mL (≈ 0.366 µM)	12.5 µg/mL (≈ 22.9 µM)	0.78 µg/mL (≈ 1.43 µM)	12.5 µg/mL (≈ 22.9 µM)	–	–	–	–	–	0.05 µg/mL (≈ 0.0915 µM)	–	ED50 (Serratia marcescens 7006 [3]; Serratia marcescens, 7006, im): 0.54 mg/kg; ED50 (Citrobacter freundii 916 [4]; Citrobacter freundii, 916, im): 0.15 mg/kg; ED50 ([5]; Staphylococcus aureus): 7.85 mg/kg; ED50 ([7]; Klebsiella aerogenes, 816, im): 26.4 mg/kg; MIC ([2]; Staphylococcus aureus, 252R): > 100 µg/mL; MIC ([1]; CN478): > 100 µg/mL; MIC ([1]; CN478, 20 h, read-out: minimum inhibitory concentration (M.I.C.)): > 100 µg/mL; MIC (Serratia marcescens 7006 [14]; Serratia marcescens, 7006): 0.2 µg/mL (≈ 0.366 µM); MIC (Serratia marcescens 7006 [14]; Serratia marcescens, 7006, read-out: M.I.C. (in parentheses)): 0.2 µg/mL (≈ 0.366 µM); MIC (Citrobacter freundii 916 [15]; Citrobacter freundii, 916, read-out: M.I.C. (in parentheses)): 0.39 µg/mL (≈ 0.714 µM); MIC ([16]; Staphylococcus aureus): 12.5 µg/mL (≈ 22.9 µM); MIC ([18]; Klebsiella aerogenes, 816, read-out: M.I.C. (in parentheses)): 6.25 µg/mL (≈ 11.4 µM)

SMILES	MIC [1, 20]	ED50 (Serratia marcescens 7006 [3]; [21])	ED50 (Citrobacter freundii 916 [4]; [22])	ED50 [5, 23]	ED50 (Escherichia coli KC-14 [6])	ED50 [7, 24]	MIC [8]	MIC [2, 25]	MIC [9]	MIC [10]	MIC [11]	MIC [12]	MIC [13]	MIC [1, 26]	MIC (Serratia marcescens 7006 [14]; [27])	MIC (Serratia marcescens 7006 [14]; [28])	MIC (Citrobacter freundii 916 [15]; [29])	MIC [16, 30]	MIC (Escherichia coli KC-14 [17])	MIC [18, 31]	other results
Nc1nc(/C(=N/O[C@H]2CCNC2=O)C(=O)N[C@@H]2C(=O)N3C(C(=O)[O-])=C(C[n+]4ccccc4)CS[C@H]23)cs1 [Example 6, 7β-{(Z)-2-(2-aminothiazol-4-yl)-2-[(2-pyrrolidon-3-yl)oxyimino]acetamido}-3-(1-pyridiniomethyl)-3-cephem-4-carboxylate (l-isomer)]	12.5 µg/mL (≈ 23 µM)	0.14 mg/kg	0.06 mg/kg	1.71 mg/kg	0.05 mg/kg	1.37 mg/kg	0.05 µg/mL (≈ 0.092 µM)	25 µg/mL (≈ 46 µM)	0.2 µg/mL (≈ 0.368 µM)	≤ 0.05 µg/mL	0.78 µg/mL (≈ 1.43 µM)	0.39 µg/mL (≈ 0.717 µM)	1.56 µg/mL (≈ 2.87 µM)	12.5 µg/mL (≈ 23 µM)	≤ 0.05 µg/mL	0.05 µg/mL (≈ 0.092 µM)	0.1 µg/mL (≈ 0.184 µM)	1.56 µg/mL (≈ 2.87 µM)	0.05 µg/mL (≈ 0.092 µM)	0.39 µg/mL (≈ 0.717 µM)	deaths of rats [19]: no rats die
